We go through 20 compounds from patent publication US20100292266A1, “Oxazolyl Piperidine Modulators of Fatty Acid Amide Hydrolase” (priority 2006, published 2010).

The target in one assay is T1, FAAH (Homo sapiens, UniProt O00519).
T1 sequence (O00519 1-579): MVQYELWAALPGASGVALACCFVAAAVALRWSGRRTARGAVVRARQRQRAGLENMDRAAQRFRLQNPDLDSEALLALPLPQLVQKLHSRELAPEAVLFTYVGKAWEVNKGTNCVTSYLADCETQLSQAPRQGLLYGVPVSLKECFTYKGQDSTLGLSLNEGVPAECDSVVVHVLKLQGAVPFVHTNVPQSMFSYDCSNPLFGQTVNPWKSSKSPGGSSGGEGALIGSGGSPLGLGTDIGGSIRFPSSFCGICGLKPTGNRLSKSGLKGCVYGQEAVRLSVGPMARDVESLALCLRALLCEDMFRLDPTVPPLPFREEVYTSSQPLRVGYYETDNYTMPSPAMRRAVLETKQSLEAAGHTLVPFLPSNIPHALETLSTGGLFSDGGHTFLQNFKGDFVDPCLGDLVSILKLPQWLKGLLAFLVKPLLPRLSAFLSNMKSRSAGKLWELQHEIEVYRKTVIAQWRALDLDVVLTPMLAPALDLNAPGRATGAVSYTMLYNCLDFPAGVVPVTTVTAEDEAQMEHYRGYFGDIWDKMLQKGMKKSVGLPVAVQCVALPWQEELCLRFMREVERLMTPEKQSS
The experiment in a line: Assay Method 1: FAAH assay, 3H-anandamide hydrolysis in cell homogenate. Conditions: T84 or transfected SK-N-MC cell homogenate, 80 nM 3H-AEA, 1 h rt, > = solubility limit or highest concentration tested. The assay is classed as biochemical. Also noted: expressed in transfected cells. On the procedure:
A. Transfection of Cells with Human FAAH
(§1) A 10-cm tissue culture dish with a confluent monolayer of SK-N-MC cells was split 2 days (d) prior to transfection. Using sterile technique, the media was removed and the cells were detached from the dish by the addition of trypsin. One fifth of the cells were then placed onto a new 10-cm dish. Cells were grown in a 37° C. incubator with 5% CO2 in Minimal Essential Media Eagle with 10% Fetal Bovine Serum. After 2 d, cells were approximately 80% confluent. These cells were removed from the dish with trypsin and pelleted in a clinical centrifuge. The pellet was re-suspended in 400 μL complete media and transferred to an electroporation cuvette with a 0.4 cm gap between the electrodes. Supercoiled human FAAH cDNA (1 μg) was added to the cells and mixed. The voltage for the electroporation was set at 0.25 kV, and the capacitance was set at 960 μF. After electroporation, the cells were diluted into complete media (10 mL) and plated onto four 10-cm dishes. Because of the variability in the efficiency of electroporation, four different concentrations of cells were plated. The ratios used were 1:20, 1:10, and 1:5, with the remainder of the cells being added to the fourth dish. The cells were allowed to recover for 24 h before adding the selection media (complete media with 600 μg/mL G418). After 10 d, dishes were analyzed for surviving colonies of cells. Dishes with well-isolated colonies were used. Cells from individual colonies were isolated and tested.
(§2) The assay mixture consisted of 50 μL of the cell homogenate, 10 μL of the test compound, and 40 μL of anandamide [1-^3H-ethanolamine] (^3H-AEA, Perkin-Elmer, 10.3 Ci/mmol), which was added last, for a final tracer concentration of 80 nM. The reaction mixture was incubated at rt for 1 h. During the incubation, 96-well Multiscreen filter plates (catalog number MAFCNOB50; Millipore, Bedford, Mass., USA) were loaded with 25 μL of activated charcoal (Multiscreen column loader, catalog number MACL09625, Millipore) and washed once with 100 μL of MeOH. Also during the incubation, 96-well DYNEX MicroLite plates (catalog number NL510410) were loaded with 100 μL of MicroScint40 (catalog number 6013641, Packard Bioscience, Meriden, Conn., USA). After the 1 h incubation, 60 μL of the reaction mixture were transferred to the charcoal plates, which were then assembled on top of the DYNEX plates using Centrifuge Alignment Frames (catalog number MACF09604, Millipore). The unbound labeled ethanolamine was centrifuged through to the bottom plate (5 min at 2000 rpm), which was preloaded with the scintillant, as described above. The plates were sealed and left at rt for 1 h before counting on a Hewlett Packard TopCount.
(§3) Where activity is shown as greater than (>) a particular value, the value is the solubility limit of the compound in the assay medium or the highest concentration tested in the assay.

For a further assay, the target named is T2, Rat FAAH (Rattus norvegicus, UniProt P97612).
T2 construct: expressed in transfected cells
T2 sequence (P97612 1-579): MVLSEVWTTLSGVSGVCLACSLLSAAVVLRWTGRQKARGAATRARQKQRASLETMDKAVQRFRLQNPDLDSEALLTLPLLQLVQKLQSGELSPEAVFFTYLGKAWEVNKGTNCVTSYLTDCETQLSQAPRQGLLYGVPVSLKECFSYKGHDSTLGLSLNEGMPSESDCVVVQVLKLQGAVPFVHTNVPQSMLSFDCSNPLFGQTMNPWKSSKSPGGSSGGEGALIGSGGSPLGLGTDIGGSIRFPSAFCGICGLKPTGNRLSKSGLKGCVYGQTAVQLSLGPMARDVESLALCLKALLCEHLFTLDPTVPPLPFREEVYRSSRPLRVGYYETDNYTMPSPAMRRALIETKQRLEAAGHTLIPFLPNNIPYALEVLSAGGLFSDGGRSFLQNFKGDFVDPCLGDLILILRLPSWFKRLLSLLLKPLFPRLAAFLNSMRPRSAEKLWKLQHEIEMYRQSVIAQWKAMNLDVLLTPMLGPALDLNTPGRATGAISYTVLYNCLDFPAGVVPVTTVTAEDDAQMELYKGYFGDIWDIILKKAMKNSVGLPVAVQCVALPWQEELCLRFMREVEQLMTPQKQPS
The experiment in a line: Assay Method 2: FAAH assay, 3H-anandamide hydrolysis in cell homogenate. It is filed as biochemical. The settings on record: transfected SK-N-MC cell homogenate, 80 nM 3H-AEA, 1 h rt, > = solubility limit or highest concentration tested. On the procedure:
A. Transfection of Cells with Rat FAAH
as §1, with “rat” for “human”
as §2, with “incubated at […] for 1” for “incubated at rt for 1”, “labeled ethanolamine . was centrifuged” for “labeled ethanolamine was centrifuged”
as §3

As usually defined, the IC50 is the point on the concentration scale where inhibition reaches its midpoint. For `O=C(c1ncco1)C1CCN(S(=O)(=O)c2ccc3ccccc3c2)CC1` [Example 1, [1-(Naphthalene-2-sulfonyl)-piperidin-4-yl]-oxazol-2-yl-methanone], the IC50 against FAAH came out at 0.1 µM; at Rat FAAH it was 1 µM. On Rat FAAH, `COc1ccc(S(=O)(=O)N2CCC(C(=O)c3ncco3)CC2)cc1` [Example 2, [1-(4-Methoxy-benzenesulfonyl)-piperidin-4-yl]-oxazol-2-yl-methanone] displayed an IC50 greater than 10 µM. The compound `COc1cccc(S(=O)(=O)N2CCC(C(=O)c3ncco3)CC2)c1` [Example 3, [1-(3-Methoxy-benzenesulfonyl)-piperidin-4-yl]-oxazol-2-yl-methanone] returned an IC50 against FAAH of 8 µM. For the compound `O=C(c1ncco1)C1CCN(S(=O)(=O)c2ccc(Cl)cc2)CC1` [Example 4, [1-(4-Chloro-benzenesulfonyl)-piperidin-4-yl]-oxazol-2-yl-methanone], the IC50 against FAAH was determined as 1.2 µM; at Rat FAAH, 8 µM. In the case of `O=C(c1ncco1)C1CCN(S(=O)(=O)c2cccc(Cl)c2)CC1` [Example 5, [1-(3-Chloro-benzenesulfonyl)-Diperidin-4-yl]-oxazol-2-yl-methanone], the IC50 at FAAH and at Rat FAAH was 8 µM each time. Regarding `O=C(c1ncco1)C1CCN(S(=O)(=O)c2ccccc2Cl)CC1` [Example 6, [1-(2-Chloro-benzenesulfonyl)-piperidin-4-yl]-oxazol-2-yl-methanone], the IC50 at FAAH came to 5 µM. For the compound `COc1cccc(C(=O)N2CCC(C(=O)c3ncco3)CC2)c1` [Example 7, [1-(3-Methoxy-benzoyl)-piperidin-4-yl]-oxazol-2-yl-methanone], the concentration for half-maximal inhibition (IC50) against Rat FAAH was greater than 10 µM. Turning to `COc1ccccc1C(=O)N1CCC(C(=O)c2ncco2)CC1` [Example 8, [1-(2-Methoxy-benzoyl)-piperidin-4-yl]-oxazol-2-yl-methanone], the IC50 against FAAH and on Rat FAAH was greater than 10 µM in each case.

As for `COc1ccc(C(=O)N2CCC(C(=O)c3ncco3)CC2)cc1` [Example 9, [1-(4-Methoxy-benzoyl)-piperidin-4-yl]-oxazol-2-yl-methanone], the IC50 at FAAH is 7 µM; on Rat FAAH, greater than 10 µM. Taken in the same sequence, the figures for `O=C(c1ncco1)C1CCN(C(=O)c2ccc3ccccc3c2)CC1` [Example 10, [1-(Naphthalene-2-carbonyl)-piperidin-4-yl]-oxazol-2-yl-methanone] were 0.028 µM and 0.35 µM. In turn, `O=C(c1ncco1)C1CCN(C(=O)c2cccc(Cl)c2)CC1` [Example 12, [1-(3-Chloro-benzoyl)-piperidin-4-yl]-oxazol-2-yl-methanone] showed an IC50 against FAAH of 9 µM.

`O=C(c1ncco1)C1CCN(C(=O)c2ccccc2Cl)CC1` [Example 13, [1-(2-Chloro-benzoyl)-piperidin-4-yl]-oxazol-2-yl-methanone] gave an IC50 at Rat FAAH greater than 10 µM.

Compound `CC(C)COc1ccc(CN2CCC(C(=O)c3ncco3)CC2)cc1` [Example 17, [1-(4-Isobutoxy-benzyl)-piperidin-4-yl]-oxazol-2-yl-methanone] showed an IC50 on FAAH of 0.18 µM.

Take `CN(C)c1ccc(CN2CCC(C(=O)c3ncco3)CC2)cc1` [Example 20, [1-(4-Dimethylamino-benzyl)-piperidin-4-yl]-oxazol-2-yl-methanone]: the midpoint of inhibition at FAAH, the IC50, lay at 0.2 µM.

For the compound `O=C(c1ncco1)C1CCN(Cc2ccc(OC3CCCCC3)cc2)CC1` [Example 21, [1-(4-Cyclohexyloxy-benzyl)-piperidin-4-yl]-oxazol-2-yl-methanone], the IC50 on FAAH was determined as 0.75 µM. Compound `CC(C)Oc1cccc(CN2CCC(C(=O)c3ncco3)CC2)c1` [Example 24, [1-(3-Isopropoxy-benzyl)-piperidin-4-yl]-oxazol-2-yl-methanone] came in with an IC50 against FAAH of 0.118 µM. Take `CCOc1ccc(CN2CCC(C(=O)c3ncco3)CC2)cc1` [Example 28, [1-(4-Ethoxy-benzyl)-piperidin-4-yl]-oxazol-2-yl-methanone]: it took 0.772 µM to reach half-maximal inhibition on FAAH (IC50). As for `O=C(c1ncco1)C1CCN(Cc2ccncc2)CC1` [Example 58, Oxazol-2-yl-(1-pyridin-4-ylmethyl-piperidin-4-yl)-methanone], on Rat FAAH, the IC50 is greater than 10 µM.

As to `O=C(c1ncco1)C1CCN(Cc2cccnc2)CC1` [Example 59, Oxazol-2-yl-(1-pyridin-3-ylmethyl-piperidin-4-yl)-methanone], the IC50 against Rat FAAH was greater than 10 µM. In turn, `CC(c1ccccc1)N1CCC(C(=O)c2ncco2)CC1` (centres unmarked) [Example 90, Oxazol-2-yl-[1-(1-phenyl-ethyl)-piperidin-4-yl]-methanone] yielded an IC50 against Rat FAAH greater than 10 µM.
